Assay results reported in US20110014174A1, “Lysozyme, A Novel Vasodilator of Sepsis that can be inhibited by a Peroxidase and Hydroxyl Radical Scavengers” (UNIVERSITY OF MANITOBA, priority 2007, published 2011).
“Also recorded” adds a separate entry of the source.

What was measured:
[1] = test system: phenylephrine contracted canine carotid artery ring preparation; test: Contraction force and vasorelaxation in phenylephrine contracted canine carotid artery ring preparation; settings: for force after HEPES buffer was added: ethanol 2×10^−7 mol/L control group, HEPES buffer instead of Lzm-S; for contraction after Lzm-S relative to the value pre-Lzm-S treatment: non-L-NMMA treated group (n=12), human Lzm-S 6.7×10^−7 mol/L; for contraction after Lzm-S relative to the pre-Lzm-S contraction: non-indomethacin treated group (n=4)
[2] = test system: Lzm-S-induced carotid artery vasodilation; test: Prevention of Lzm-S-induced vasodilation by pretreatment agents in the carotid artery ring preparation; parameters: species or system canine; settings: for contraction after Lzm-S, % of the butanol-plateau: n-butanol pretreated; for inhibition of Lzm-S-induced vasodilation (words): pretreatment with the agent, phenylephrine contracted ring; for inhibition of Lzm-S-induced vasodilation (words) / contraction after Lzm-S relative to the value post-L-NMMA treatment: human Lzm-S 6.7×10^−7 mol/L; for contraction after Lzm-S relative to the post-indomethacin plateau: indomethacin 10^−6 mol/L treated group (n=5); for contraction after Lzm-S relative to the value post-L-NMMA treatment: L-NMMA 10^−3 mol/L treated group (n=8)

## CCCCO [n-butanol]
[1]; n-butanol (10^−7 mol/L), before Lzm-S
  force after the alcohol was added, % of the phenylephrine-plateau response: 61±17%
[2]; 5 minutes
  contraction after Lzm-S, % of the butanol-plateau: 84±9%
[2]; 15 minutes
  contraction after Lzm-S, % of the butanol-plateau: 62±21%
[2]; 30 minutes
  contraction after Lzm-S, % of the butanol-plateau: 23±27%
[2]
  inhibition of Lzm-S-induced vasodilation (words): no inhibitory effect

## COc1ccc2c(c1)c(CC(=O)O)c(C)n2C(=O)c1ccc(Cl)cc1 [indomethacin]
[1]; indomethacin 10^−6 mol/L after phenylephrine, before Lzm-S
  force over 30 minutes when indomethacin was added: 5.6±0.5 grams
[2]; 5 minutes
  contraction after Lzm-S relative to the post-indomethacin plateau: 79±11%
[2]; 15 minutes
  contraction after Lzm-S relative to the post-indomethacin plateau: 57±24%
[2]; 30 minutes
  contraction after Lzm-S relative to the post-indomethacin plateau: 39±25%
[2]
  inhibition of Lzm-S-induced vasodilation (words): did not Prevent Vasodilation

## CCO [ethanol]
[1]; 5 minutes
  force after HEPES buffer was added: 10.7±2.8 grams
[1]; 15 minutes
  force after HEPES buffer was added: 11±2.8 grams
[1]; 30 minutes
  force after HEPES buffer was added: 11±2.6 grams
[1]; ethanol treated control group, ethanol highest concentration 2×10^−7 mol/L, before HEPES buffer
  contraction with ethanol as compared with the phenylephrine contraction alone: 10±2.6 grams
[1]; higher concentrations of ethanol, before Lzm-S
  initial effect of ethanol on force: initial vasoconstriction
[2]
  inhibition of Lzm-S-induced vasodilation (words): inhibited the effect of lysozyme
[2]; listed as Ethanol
  inhibition of Lzm-S-induced vasodilation (words): markedly effective

## CNC(=N)NCCC[C@H](N)C(=O)O [L-NMMA, N^G-monomethyl-L-arginine]
[1]; L-NMMA 10^−3 mol/L added after phenylephrine plateau, before Lzm-S
  contraction with L-NMMA treatment: 8.1±3.5 grams
[2]; 5 minutes
  contraction after Lzm-S relative to the value post-L-NMMA treatment: 37±22%
[2]; 15 minutes
  contraction after Lzm-S relative to the value post-L-NMMA treatment: 13±16%
[2]; 30 minutes, minus = below resting force
  contraction after Lzm-S relative to the value post-L-NMMA treatment: −0.3±1%
[2]
  inhibition of Lzm-S-induced vasodilation (words): did not inhibit lysozyme induced vasodilation; also recorded: did not Prevent Vasodilation

B1: human Lzm-S: Human lysozyme purchased from EMD Biosciences; used in all experiments after the initial ones (protein, UniProt P61626 19-148, looked up)
Lysozyme C: KVFERCELARTLKRLGMDGYRGISLANWMCLAKWESGYNTRATNYNAGDRSTDYGIFQINSRYWCNDGKTPGAVNACHLSCSALLQDNIADAVACAKRVVRDPQGIRAWVAWRNRCQNRDVRQYVQGCGV
[1]; FIG. 2 mean values
  vasorelaxation in the carotid artery preparation (mean values): significant vasorelaxation
[1]; endothelium denuded preparation (n=4), 5 minutes
  contraction after Lzm-S, % of the phenylephrine plateau: 79±18%
[1]; endothelium denuded preparation (n=4), 15 minutes
  contraction after Lzm-S, % of the phenylephrine plateau: 58±21%
[1]; endothelium denuded preparation (n=4), 30 minutes
  contraction after Lzm-S, % of the phenylephrine plateau: 54±20%
[1]; endothelium intact preparation (n=4), 5 minutes
  contraction after Lzm-S, % of the phenylephrine plateau: 64±25%
[1]; endothelium intact preparation (n=4), 15 minutes
  contraction after Lzm-S, % of the phenylephrine plateau: 53±33%
[1]; endothelium intact preparation (n=4), 30 minutes
  contraction after Lzm-S, % of the phenylephrine plateau: 76±21%
[1]; example traces FIG. 1, phenylephrine constricted carotid ring
  constriction after lysozyme relative to the phenylephrine value: about 40%
[1]; human Lzm-S 3.3×10^−7 mol/L
  vasodilatory effect: minimal vasodilatory effect
[1]; human Lzm-S higher concentration (6.7×10^−7 mol/L)
  reduction in contraction: nearly eliminated the increase in force induced by phenylephrine
[1]; 5 minutes
  contraction after Lzm-S relative to the value pre-Lzm-S treatment: 23±24%
  contraction after Lzm-S relative to the pre-Lzm-S contraction: 71±16%
[1]; 15 minutes
  contraction after Lzm-S relative to the value pre-Lzm-S treatment: 8±27%
  contraction after Lzm-S relative to the pre-Lzm-S contraction: 45±19%
[1]; 30 minutes
  contraction after Lzm-S relative to the value pre-Lzm-S treatment: 2±34%
  contraction after Lzm-S relative to the pre-Lzm-S contraction: 19±15%
